For 1 molecule, melting point results are on record in US20090176996A1, “PROCESS FOR THE PREPARATION OF SULFAMIDE DERIVATIVES” (priority 2008, published 2009).

Each structure is given as a SMILES string.

`NS(=O)(=O)NCc1ccccc1` (hydrate or solvate) [Example 5, Benzylsulfamide]: the melting point was 102 to 104 °C.

The melting point is the temperature of the solid-liquid transition.
